Results on 1 molecule are retold here after patent US11932606B2, “Anti-cancer/anti-fibrosis compounds” (THE REGENTS OF THE UNIVERSITY OF CALIFORNIA, priority 2017, dated 2024).

pIC50: −log10 of the molar value. Read-outs that look alike come from different tables or passages of the source. Some results are limits rather than exact numbers.

One assay has as its system SET-2. Kind of assay: AML cell viability (CellTiter-Glo, day 7). The settings on record: Homo sapiens. It counts as cell-based. In general terms: ATP-based viability assays read luminescence as a measure of living cells.
For the next assay, the target named is CDK8/cyclinC (Homo sapiens (Human), UniProt P49336). Description: CDK8 LanthaScreen Eu kinase binding assay. The settings on record: read-out: IC50 against CDK8. The protocol:
CDK8 Enzymatic Activity Inhibition: Determination of IC50 Values for Selected Compounds
The half maximal inhibitory concentration (IC50) with respect to CDK8 inhibition was determined for the compounds of the invention by using LanthaScreen™ Eu kinase binding assay from ThermoFisher Scientific's SelectScreen™ Biochemical Kinase Profiling Service (Waltham, MA). Compounds were screened in 1% DMSO (final) in the well. For 10 point titrations, 3-fold serial dilutions were conducted from the starting concentration.
The 2×CDK8/cyclinC/Eu-anti-His mixture is prepared in kinase buffer A (50 mM HEPES pH 7.5, 0.01% BRIJ-35, 10 mM MgCl2, 1 mM EGTA). The Bar-coded, low volume, white 384-well plate (Greiner Cat. #784207) were used for the assay. 160 nL of 100× test compound in 100% DMSO, 3.84 uL of kinase buffer A, 8 uL of 2×CDK8/cyclinC/Eu-anti-His mixture, and 4 uL of 4× tracer 236 were mixed and shaked for 30 seconds. Then the Kinase Reaction was incubated at room temperature for 60 minutes. After the 1 hour Kinase Reaction incubation, the plate was read on a fluorescence plate reader (Infinite F500, Tecan Systems Inc, USA), and data was analyzed using XLfit from IDBS. The dose response curve was curve fit to model number 205 (sigmoidal dose-response model).
A general note: Time-resolved FRET reads energy transfer from a long-lived donor to a nearby acceptor.

The next assay deals with H290. Description: Cell viability assay (CellTiter-Glo, day 7). The note with it: NCI-H290, 168 h; H290, day 7. It counts as cell-based. As to the method:
(§1) CLL-119, Hela, HCT116, MCF7, Colo205, SW620, H2052, MSTO-211H, U-251, Colo 357, OE33, Huh-7, A549, BT474, A204 and H290 cells were acquired from UCSF Cell and Genome Engineering Core. A549-Brm3 and H2030-Brm3 were from UCSF thoracic oncology lab. All cells were plated (96-well) in triplicate at 500 cells per well for testing (n=3) with compound. Medium was changed once on day 3. On day 7, the CellTiter-Glo Luminescent Cell Viability Assay (Promega) was performed to measure the response. For cell viability assay, two independent experiments have been done.

In a further assay the test system is Huh-7. Kind of assay: Cell viability assay (CellTiter-Glo, day 7). The settings on record: Homo sapiens, 168 h; Huh-7, day 7. It counts as cell-based. As to the method:
as §1

The subject of the next assay is MSTO-211H. Kind of assay: Cell viability assay (CellTiter-Glo, day 7). The format is cell-based. The note with it: Homo sapiens, 168 h. The protocol:
as §1

The subject of another assay is A549-BRM3. Kind of assay: Cell viability assay (CellTiter-Glo, day 7). It counts as cell-based. The note with it: 168 h; A549-BRM3, day 7. As to the method:
as §1

In assay [1] the test system is MOLM-14 AML cancer cell line. Description: Western blot of treated cells. It counts as cell-based. The note with it: MOLM-14, 30 nM up to 3 μM, 24 hours and 48 hours.
The next assay has as its system MOLM-14 xenograft tumors. Kind of assay: Western analysis / pharmacodynamics of MOLM-14 xenograft tumors. It counts as in vivo, mouse. The protocol:
For tissue: Tissue was homogenized and protein was extracted using T-per Mammalian protein extraction reagent (78510, Thermo Fisher Scientific). In the pharmacodynamics study, mice bearing tumors were treated with vehicle, 10 mg/kg, 50 mg/kg and 100 mg/kg for 6 hrs. After 6 hrs of treatment, tumors were removed for further procedure.
Proteins were separated on SDS-PAGE and transferred to nitrocellulose membrane. Immunoblotting were performed using specific antibodies: phosphor-Stat1-pS727 (8826, Cell signaling), total-Stat1 (14994, Cell signaling), Phospho-Stat3 (Tyr705) (9131, Cell signaling), Stat3 (9139, Cell signaling), pSTAT5-pS726 (ab128896, abcam), stat5 (94205, cell signaling), YAP (14074, Cell signaling), CYR61(14479, Cell signaling), CTGF (ab6992, Abcam), c-Myc (13987, Cell signaling), Mcl-1 (94296, Cell signaling) and GAPDH (AM4300, Invitrogen). (FIG. 1A, FIG. 1B, FIG. 1C). MV-4-11 cancer cell line was treated with compound 29 at various concentrations (30 nM up to 10 μM) for 24 hours and 48 hours, respectively.
Tumors from the MOLM-14 xenograft study were collected and processed for western analysis. In the western results showing above, the level of p-STAT1 (Ser727) in the three mice samples from the treated group were much lower compared to that in the three mice samples from the control group.

For the next assay, the target named is CDK19 (inactive) (Homo sapiens (Human), UniProt Q9BWU1). Kind of assay: CDK19 (inactive) LanthaScreen Eu kinase binding assay. The note with it: read-out: IC50 against CDK19. The protocol:
Compounds were screened in 1% DMSO (final) in the well. For 10 point titrations, 3-fold serial dilutions were conducted from the starting concentration.
The Bar-coded, low volume, white 384-well plate (Greiner Cat. #784207) were used for the assay. […] Then the Kinase Reaction was incubated at room temperature for 60 minutes. After the 1 hour Kinase Reaction incubation, the plate was read on a fluorescence plate reader (Infinite F500, Tecan Systems Inc, USA) and data was analyzed using XLfit from IDBS. The dose response curve was curve fit to model number 205 (sigmoidal dose-response model).

For a further assay, the system named is RS4;11. Kind of assay: AML cell viability (CellTiter-Glo, day 7). The format is cell-based. The note with it: Homo sapiens. As to the method:
(§2) MV-4-11 cell (ATCC CRL-9591), RS4;11 (ATCC CRL-1873) and TG-1 (ATCC CRL1608) were acquired from ATCC. MOLM14 (ACC777) was acquired from DSMZ. All cells were plated (96-well) in triplicate at 5000 cells per well for testing (n=3) with compound. On day 3, an equal volume for all wells was split-back with fresh media and compound. On day 7, the CellTiter-Glo Luminescent Cell Viability Assay (Promega) was performed to measure the response. For cell viability assay, two independent experiments have been done.

The next assay concerns MV-4-11. Kind of assay: AML cell viability (CellTiter-Glo, day 7). It counts as cell-based. The settings on record: Homo sapiens. The protocol: as §2
The next assay relates to TG-1. Kind of assay: AML cell viability (CellTiter-Glo, day 7). The format is cell-based. As to the method:
as §2

The subject of a further assay is MOLM-14. Kind of assay: AML cell viability (CellTiter-Glo, day 7). The format is cell-based. The note with it: Homo sapiens. The protocol: as §2
The mark [2] stands for this setting: tumors from MOLM-14 xenograft study, Western.

Chain of CDK19 (inactive) (Q9BWU1 whole entry): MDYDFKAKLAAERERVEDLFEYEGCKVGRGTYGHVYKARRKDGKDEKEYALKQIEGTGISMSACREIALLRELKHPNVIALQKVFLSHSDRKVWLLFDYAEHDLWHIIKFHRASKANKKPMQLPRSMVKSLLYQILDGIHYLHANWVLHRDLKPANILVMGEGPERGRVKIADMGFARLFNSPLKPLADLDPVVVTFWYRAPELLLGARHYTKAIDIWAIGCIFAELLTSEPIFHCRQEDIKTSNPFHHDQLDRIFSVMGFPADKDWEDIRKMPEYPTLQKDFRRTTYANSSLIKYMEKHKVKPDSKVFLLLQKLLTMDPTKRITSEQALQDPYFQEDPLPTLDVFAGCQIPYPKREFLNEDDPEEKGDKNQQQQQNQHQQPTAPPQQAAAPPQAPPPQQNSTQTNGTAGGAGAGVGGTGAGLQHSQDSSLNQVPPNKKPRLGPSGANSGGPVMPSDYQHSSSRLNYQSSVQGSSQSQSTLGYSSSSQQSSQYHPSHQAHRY
Chain of CDK8/cyclinC (P49336 whole entry): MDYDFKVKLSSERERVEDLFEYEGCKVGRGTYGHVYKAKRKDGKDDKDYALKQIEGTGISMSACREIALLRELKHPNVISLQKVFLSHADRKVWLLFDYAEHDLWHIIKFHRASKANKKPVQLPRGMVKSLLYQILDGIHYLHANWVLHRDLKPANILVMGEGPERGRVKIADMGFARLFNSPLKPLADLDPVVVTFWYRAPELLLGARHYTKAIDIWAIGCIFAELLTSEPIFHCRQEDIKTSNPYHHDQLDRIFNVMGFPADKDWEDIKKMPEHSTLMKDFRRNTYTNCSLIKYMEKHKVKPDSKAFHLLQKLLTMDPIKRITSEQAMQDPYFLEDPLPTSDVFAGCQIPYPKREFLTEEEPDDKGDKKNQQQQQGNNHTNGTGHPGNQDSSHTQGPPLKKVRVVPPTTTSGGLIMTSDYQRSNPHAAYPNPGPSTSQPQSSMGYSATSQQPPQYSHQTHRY
Chain of CDK8/cyclinC (P24863 whole entry partner): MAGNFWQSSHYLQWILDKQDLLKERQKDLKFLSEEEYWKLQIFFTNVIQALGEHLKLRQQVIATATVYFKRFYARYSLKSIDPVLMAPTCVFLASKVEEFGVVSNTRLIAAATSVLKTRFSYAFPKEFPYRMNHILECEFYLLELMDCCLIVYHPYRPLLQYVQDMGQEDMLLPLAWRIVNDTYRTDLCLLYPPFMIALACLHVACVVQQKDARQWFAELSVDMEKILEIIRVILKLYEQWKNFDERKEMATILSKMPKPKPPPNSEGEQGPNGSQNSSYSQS

Take `Nc1nccc2c(Br)cc3cc(C(=O)[O-])ccc3c12.[Na+]` [Compound 29, Sodium 1-amino-5-bromobenzo[h]isoquinoline-8-carboxylate]: the pIC50 is above 6.00 in the assay on SET-2 (168 h, SET-2, day 7, read-out: Cell viability IC50); above 6.00 in the assay on SET-2 (SET-2, text statement, read-out: potency in cell viability assay); above 6.52 on CDK8/cyclinC; 5.00 to 6.00 in the assay with H290; above 6.00 with Huh-7; 5.00 to 6.00 with MSTO-211H. Besides, the pIC50 in the assay with A549-BRM3 was 5.00 to 6.00; on CDK19 (inactive), above 6.52; in the assay with RS4;11 (168 h, RS4;11, day 7, read-out: Cell viability IC50), above 6.00; in the assay on RS4;11 (RS4;11, text statement, read-out: potency in cell viability assay), above 6.00; with MV-4-11 (MV4-11, 168 h, MV-4-11, day 7, read-out: Cell viability IC50), above 6.00; with MV-4-11 (MV4-11, MV-4-11, text statement, read-out: potency in cell viability assay), above 6.00. Also, the pIC50 is above 6.00 in the assay with TG-1 (TG1, 168 h, TG-1, day 7, read-out: Cell viability IC50); above 6.00 in the assay with TG-1 (TG1, TG-1, text statement, read-out: potency in cell viability assay); above 6.00 in the assay with MOLM-14 (168 h, MOLM-14, day 7, read-out: Cell viability IC50); above 6.00 in the assay on MOLM-14 (MOLM-14, text statement, read-out: potency in cell viability assay). For the same molecule, the “level of p-STAT1(Ser727), p-STAT3(Tyr705), p-STAT5(Ser726) and YAP” value in assay [1] is “down regulate”. The “p-STAT1 (Ser727) in tumors, pharmacodynamics study” value in the assay on MOLM-14 xenograft tumors (10 mg/kg, 50 mg/kg and 100 mg/kg, 6 hrs) was “a dose response (10 mg/kg, 50 mg/kg and 100 mg/kg) of down regulation”. Also, the “level of p-STAT1 (Ser727) in tumors vs control group” value in the assay on MOLM-14 xenograft tumors (setting [2]) is given as “much lower”. In addition, the “level of p-STAT5(Ser726) in tumors vs control group” value in the assay with MOLM-14 xenograft tumors (setting [2]) is on record as “lower level”.
